Test in all cases: growth of human tumour cells (NCI), 48 h
Test [1] has as its system COLO 205.
Test [2] relates to SNB-19.
Test [3] has as its system NCI-H226.
Test [4] deals with BT-549.
Test [5] deals with UACC-62.
Test [6] concerns IGROV-1.
In test [7] the test system is NCI/ADR-RES.
Test [8] relates to SF-295.
The subject of test [9] is SW-620.
Test [10] has as its system MDA-MB-435.
Test [11] has as its system Malme-3M.
Test [12] concerns MDA-N.
In test [13] the test system is SF-268.
In test [14] the test system is UACC-257.
Test [15] concerns Hs-578T.
Test [16] concerns HCT-15.
Test [17] has as its system M14.
The subject of test [18] is A549.
The test system of test [19] is NCI-H522.
For test [20], the system named is SR.

This note sets out measurements from ChEMBL document CHEMBL1201862, “PubChem BioAssay data set” (2004).

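The compound was tested at five concentrations on cells cultured in 96-well plates, with a 48-hour exposure period. Abbreviation: GI50, concentration required for 50% inhibition of growth.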 Active and inactive are the calls of the source. Cut-off read from the data, not from the text of the source: active = GI50 up to about 1.1 µM and inactive = higher.

With `CC(C)(/N=N/C(C)(C)C1=NCCN1)C1=NCCN1`, the GI50 in [1], in test [2], in test [3], in test [4], in [5] and in [6] was > 100 µM (inactive) in each case. For the same compound, the GI50 in test [7], in test [8], in test [9], in [10], in test [11] and in [12] was > 100 µM (inactive) throughout. For the same compound, the GI50 in test [13] was > 100 µM (inactive); in [14] it was > 100 µM (inactive); in [15], > 100 µM (inactive); in [16] it was above 100 µM; in [17] it was > 85.9 µM (inactive).

For the compound `Cc1cc(NCCCCCCCCCC[n+]2c(C)cc(N)c3ccccc32)c2ccccc2n1`, the GI50 in [1] is 0.346 µM (active); in test [2], 0.427 µM (active); in test [3] it was 2.67 µM (inactive); in test [4], 1.86 µM (inactive); in test [5], 1.16 µM (inactive); in test [6] it was 0.419 µM (active). Moreover, the GI50 in [18] is 0.378 µM (active); in test [7] it was 12.6 µM (inactive); in test [8], 0.861 µM (active); in [19], 0.253 µM (active); in test [9] it was 1.84 µM (inactive); in [10], 1.01 µM (active). Besides, the GI50 in test [11] was 1.82 µM (inactive); in [12], 1.04 µM (active); in [13] it was 1.43 µM (inactive); in test [14] it was 0.216 µM (active); in [15], 0.375 µM (active); in test [16] it was 3.95 µM. Further, the GI50 in test [17] is 2.04 µM (inactive).

On to `CCCCCCC(CCl)c1sc(-c2csc(CCNC(=O)OC(C)(C)C)n2)nc1C(=O)OC` (stereo not drawn), for which the GI50 in test [1] is 35.6 µM (inactive); in test [2], 40.6 µM (inactive); in test [4] it was 18.5 µM (inactive); in [5] it was 13.8 µM (inactive); in test [6], 30.2 µM (inactive); in test [18], 26.4 µM (inactive). For the same compound, the GI50 is 2.32 µM (inactive) in [7]; 32.2 µM (inactive) in [8]; 3.94 µM (inactive) in test [20]; 22 µM (inactive) in test [19]; 36 µM (inactive) in test [9]; 12.5 µM (inactive) in [10]. The GI50 was 26.7 µM (inactive) in [12]; 20.3 µM (inactive) in [13]; 27.1 µM (inactive) in test [14]; 16.2 µM (inactive) in test [15]; 14.1 µM in test [16].

Regarding `Brc1ccc(/N=C/C=C(\Nc2ccc(Br)cc2)C23CC4CC(CC(C4)C2)C3)cc1`, the GI50 in test [1] is 9.62 µM (inactive); in test [2], 29.6 µM (inactive); in [3], 97.3 µM (inactive); in [4], 15.7 µM (inactive); in test [5], 1.17 µM (inactive); in [6] it was 11.3 µM (inactive). In addition, the GI50 was 22.5 µM (inactive) in test [18]; 20 µM (inactive) in [7]; 10 µM (inactive) in test [8]; 10.9 µM (inactive) in test [19]; 18.1 µM (inactive) in [9]; 5.11 µM (inactive) in test [10]. Besides, the GI50 is 19.1 µM (inactive) in test [11]; 12.4 µM (inactive) in test [12]; 10.2 µM (inactive) in [13]; 16.6 µM (inactive) in test [14]; 27.4 µM (inactive) in [15]; 6.34 µM in test [16]. In addition, the GI50 in [17] was 9.75 µM (inactive).

Regarding `COC(=O)[C@@H]1[C@H](OC(C)=O)CCC2[C@@]3(C[C@@H](c4ccoc4)O[C@@H]3OC)[C@H](C)CC[C@]21C(=O)OC` (stereo partly drawn), the GI50 in [1], in [2], in test [3], in test [4], in test [5] and in test [6] was > 25 µM (inactive) in each case. Besides, the GI50 in [18], in test [7], in [8], in [20], in test [19] and in test [9] was > 25 µM (inactive) in each case. Further, the GI50 is > 25 µM (inactive) in [10]; > 25 µM (inactive) in test [12]; > 25 µM (inactive) in test [13]; > 25 µM (inactive) in test [14]; > 25 µM (inactive) in test [15]; above 25 µM in test [16]. For the same compound, the GI50 in test [17] is > 25 µM (inactive).

As for `CCO[C@H]1C[C@@H](c2ccccc2)[C@]2(C)C[C@H](C(=O)OC)ON2O1`, the GI50 in [1], in test [2], in test [3], in test [4], in [5] and in [6] was > 100 µM (inactive) throughout. Also, the GI50 in test [18], in test [7], in test [8], in test [19], in test [9] and in [10] was > 100 µM (inactive) each time. Besides, the GI50 is > 100 µM (inactive) in [11]; > 100 µM (inactive) in test [12]; > 100 µM (inactive) in test [13]; > 100 µM (inactive) in [14]; > 100 µM (inactive) in test [15]; above 100 µM in test [16]. In [17], the GI50 is > 100 µM (inactive).

Consider `CCc1ccccc1NC(=O)C(C#N)C1=C(Cl)C(=O)c2ccccc2C1=O` (stereo not drawn), for which the GI50 is 15.7 µM (inactive) in test [1]; 25.4 µM (inactive) in [2]; 15.3 µM (inactive) in test [3]; 21.9 µM (inactive) in [4]; 16.8 µM (inactive) in test [5]; 12.6 µM (inactive) in test [6]. The GI50 is 21.9 µM (inactive) in [18]; 16.7 µM (inactive) in test [7]; 20.9 µM (inactive) in [8]; 21.6 µM (inactive) in [20]; 13.5 µM (inactive) in test [19]; 18.4 µM (inactive) in test [9]. Moreover, the GI50 in test [10] is 25.6 µM (inactive); in [11], 6.07 µM (inactive); in [13], 21.7 µM (inactive); in test [14], 16.4 µM (inactive); in test [15], 19.3 µM (inactive); in test [16] it was 14.7 µM. For the same compound, the GI50 in [17] is 6.71 µM (inactive).

As for `CS(=O)(=O)Nc1ccc(N2Cc3c[nH]c4ccc5nccc2c5c34)cc1`, the GI50 in test [1] was 11.9 µM (inactive); in test [2], 13.1 µM (inactive); in test [3], 15.4 µM (inactive); in [4], 21.8 µM (inactive); in test [5] it was 16.3 µM (inactive); in test [6], 22.2 µM (inactive). In addition, the GI50 in test [18] was 33.4 µM (inactive); in test [7], > 100 µM (inactive); in [8] it was 27.7 µM (inactive); in [19] it was 10.3 µM (inactive); in test [9] it was 15 µM (inactive); in [10], 15.5 µM (inactive). The GI50 was 4.54 µM (inactive) in test [11]; 15.7 µM (inactive) in test [12]; 14.5 µM (inactive) in test [14]; 39.1 µM (inactive) in [15]; above 100 µM in [16]; 15.5 µM (inactive) in test [17].

On to `O=C1/C(=C/c2c(Cl)[nH]c3ccccc23)c2ccccc2N1c1ccccc1`, for which the GI50 was 1.79 µM (inactive) in test [1]; 9.84 µM (inactive) in test [2]; 3.29 µM (inactive) in test [4]; 5.65 µM (inactive) in test [5]; 4.39 µM (inactive) in [6]; 5.18 µM (inactive) in test [18]. For the same compound, the GI50 in [7] was 2.24 µM (inactive); in test [8] it was 2.44 µM (inactive); in test [20], 3.64 µM (inactive); in [19] it was 3.05 µM (inactive); in test [9], 5.15 µM (inactive); in test [10], 1.64 µM (inactive). Further, the GI50 was 5.79 µM (inactive) in [11]; 1.85 µM (inactive) in [12]; 5.52 µM (inactive) in test [13]; 11.6 µM (inactive) in [14]; 3.9 µM (inactive) in test [15]; 3.14 µM in test [16]. The GI50 in test [17] was 3.93 µM (inactive).

`C=C(c1ccc2[nH]c(NC(=O)OC)nc2c1)c1cccs1`: the GI50 in test [1] was 0.129 µM (active); in [2], 0.198 µM (active); in test [3], 0.22 µM (active); in test [4], 0.679 µM (active); in [5] it was 0.121 µM (active); in test [6] it was 0.371 µM (active). The GI50 in [18] was 0.16 µM (active); in test [7], 0.0488 µM (active); in test [8], 0.051 µM (active); in test [20] it was < 0.01 µM (active); in [19] it was 0.0813 µM (active); in [10], 0.0259 µM (active). The GI50 was 0.0855 µM (active) in test [11]; 2.02 µM (inactive) in test [13]; 0.556 µM (active) in test [14]; 0.417 µM (active) in test [15]; below 0.0349 µM in test [16]; 0.247 µM (active) in test [17].

Turning to `Cc1cccc(Cn2c3c(c4cc(O)ccc42)C(=O)c2ccccc2C3=O)c1`, the GI50 was > 78.2 µM (inactive) in [1]; 28 µM (inactive) in test [2]; 15.7 µM (inactive) in test [3]; 24.3 µM (inactive) in test [4]; 11.1 µM (inactive) in test [5]; 5.13 µM (inactive) in [6]. Besides, the GI50 is 11.3 µM (inactive) in test [18]; 6.84 µM (inactive) in [7]; 3.89 µM (inactive) in test [8]; 14.2 µM (inactive) in [20]; 31 µM (inactive) in test [9]; > 80.9 µM (inactive) in test [10]. Also, the GI50 in test [11] is 19.1 µM (inactive); in test [12], 68.4 µM (inactive); in test [13], 36.6 µM (inactive); in test [14], > 100 µM (inactive); in [15], 24.4 µM (inactive); in [16], 54.7 µM. The GI50 in test [17] is > 100 µM (inactive).
